The structures appear in SMILES notation. ≈ marks a conversion by molar mass, not a printed value.

The first test has as its system C. difficile strain R20291. Kind of test: MIC determination by broth microdilution. In kind it is cell-based.
Details: not given
Background: In broth dilution the organism is exposed to a series of concentrations in liquid medium.
In the case of `O=C(NCc1nc(-c2ccc(Br)cc2)c[nH]1)Nc1nc2ccccc2s1` [Compound 6a], the “activity against C. difficile in MIC testing (in words)” value was “inactive”.

Still in this test, the particulars now being: Clostridioides difficile, R20291, 24 h, Table 1; BHI broth, 24 h anaerobic, 37° C.; read-out: R20291 MIC.
Usually MIC stands for the least concentration at which growth counts as inhibited. As for `O=C(NCc1nc(-c2ccc(Br)cc2)c[nH]1)Nc1ncc(Sc2ccc3ccccc3n2)s1` [Compound 5h], the MIC was greater than 50 µg/mL.
Still for that read-out and setting: next, `O=C(NCc1nc(-c2ccc(Br)cc2)c[nH]1)Nc1ncc(Sc2ccc(Cl)cn2)s1` [Compound 5e]: 3.12 µg/mL (≈ 5.98 µM); `O=C(NCc1nc(-c2ccc(Br)cc2)c[nH]1)Nc1ncc(Sc2ncccn2)s1` [Compound 5b]: 1.56 to 3.12 µg/mL (≈ 3.19 to 6.39 µM).
On the same count and under the same terms, with `O=C(NCc1nc(-c2ccc(Br)cc2)c[nH]1)Nc1ncc(Sc2ncccc2C(F)(F)F)s1` [Compound 5g] the figure was 1.56 µg/mL (≈ 2.81 µM).

Staying with this test, now noted: Clostridioides difficile, R20291, 24 h, Table 2; BHI broth, 24 h anaerobic, 37° C.; read-out: R20291 MIC.
Take `CCOc1ccc2nc(NC(=O)NCc3nc(-c4ccc(Br)cc4)c[nH]3)sc2c1` [Compound 6k]: the MIC was 12.5 µg/mL (≈ 26.5 µM).
As to `O=C(NCc1nc(-c2ccc(Br)cc2)c[nH]1)Nc1nc2cc(C(F)(F)F)ccc2s1` [Compound 6c], the MIC was 3.12 µg/mL (≈ 6.29 µM).
Same read-out and setting: with `O=C(NCc1nc(-c2ccc(Br)cc2)c[nH]1)Nc1nc2ccc(Br)cc2s1` [Compound 6g] the figure was 50 µg/mL (≈ 98.6 µM).

The same test, now with this note: Clostridioides difficile, R20291, 24 h, read-out: R20291 MIC.
Consider `O=C(NCc1nc(-c2ccc(Br)cc2)c[nH]1)Nc1ncc(Sc2ccc(Br)cc2)s1` [Compound 5d], for which the MIC came to 25 µg/mL (≈ 44.2 µM).
With `O=C(NCc1nc(-c2ccc(Br)cc2)c[nH]1)Nc1nc2ccccc2s1` [Compound 6a], the MIC was greater than 50 µg/mL.
Consider `CN[C@H](CC(C)C)C(=O)N[C@H]1C(=O)N[C@@H](CC(N)=O)C(=O)N[C@H]2C(=O)N[C@H]3C(=O)N[C@H](C(=O)N[C@H](C(=O)O)c4cc(O)cc(O)c4-c4cc3ccc4O)[C@H](O)c3ccc(c(Cl)c3)Oc3cc2cc(c3O[C@@H]2O[C@H](CO)[C@@H](O)[C@H](O)[C@H]2O[C@H]2C[C@](C)(N)[C@H](O)[C@H](C)O2)Oc2ccc(cc2Cl)[C@H]1O` [Vancomycin, reference compound], for which the MIC lay within 0.39 to 0.78 µg/mL (≈ 0.269 to 0.538 µM).
On the same count and under the same terms, next, `O=C(NCc1nc(-c2ccc(Br)cc2)c[nH]1)Nc1ncc(Sc2ccccc2)s1` [Compound 5c]: 1.56 to 3.12 µg/mL (≈ 3.21 to 6.41 µM); `O=C(NCc1nc(-c2ccc(Br)cc2)c[nH]1)Nc1ncc(Sc2nc3ccccc3s2)s1` [Compound 5i]: greater than 50 µg/mL.

The test is the same for the next values; noted with them: Clostridioides difficile, R20291, Table 3; read-out: R20291 MIC.
Turning to `O=C(NCc1nc(-c2ccccc2)n[nH]1)Nc1ncc(Sc2ccccn2)s1` [Compound 8a], the MIC is greater than 50 µg/mL.
The same measure, in the same setting: next, `O=C(NCc1nc2ccccc2c(=O)[nH]1)Nc1ncc(Sc2ccccn2)s1` [Compound 8c]: greater than 50 µg/mL.

The same test, now with this note: Clostridioides difficile, R20291, running text; read-out: MIC (anti-C. difficile activity).
Take `S=C(NCc1nc(-c2ccc(Br)cc2)c[nH]1)Nc1ncc(Sc2ccccn2)s1` [Compound 7a]: the MIC is 0.39 µg/mL (≈ 0.775 µM).
The same measure, in the same setting: next, `O=C(NCc1nc(-c2ccc(Br)cc2)c[nH]1)Nc1nc2ccc(Cl)cc2s1` [Compound 6h]: 6.25 µg/mL (≈ 13.5 µM).
For `O=C(NCc1nc(-c2ccc(Br)cc2)c[nH]1)Nc1nc2c(F)cc(F)cc2s1` [Compound 6j], the MIC amounted to 12.5 µg/mL (≈ 26.9 µM).
Still for that read-out and setting: with `CS(=O)(=O)c1ccc2nc(NC(=O)NCc3nc(-c4ccc(Br)cc4)c[nH]3)sc2c1` [Compound 6f] the figure was greater than 100 µg/mL; with `O=C(NCc1nc(-c2ccc(Br)cc2)c[nH]1)Nc1nc2ccc(OC(F)(F)F)cc2s1` [Compound 6l], 12.5 to 25 µg/mL (≈ 24.4 to 48.8 µM).

The test is the same for the next values; noted with them: Table 2; BHI broth, 24 h anaerobic, 37° C.
With `CN[C@H](CC(C)C)C(=O)N[C@H]1C(=O)N[C@@H](CC(N)=O)C(=O)N[C@H]2C(=O)N[C@H]3C(=O)N[C@H](C(=O)N[C@H](C(=O)O)c4cc(O)cc(O)c4-c4cc3ccc4O)[C@H](O)c3ccc(c(Cl)c3)Oc3cc2cc(c3O[C@@H]2O[C@H](CO)[C@@H](O)[C@H](O)[C@H]2O[C@H]2C[C@](C)(N)[C@H](O)[C@H](C)O2)Oc2ccc(cc2Cl)[C@H]1O` [Vancomycin, reference compound], the “R20291 MIC” value is 0.39 to 0.78 µg/mL.
Still for that read-out and setting: with `O=C(NCc1nc(-c2ccc(Br)cc2)c[nH]1)Nc1nc2c(C(F)(F)F)cccc2s1` [Compound 6b] the figure was 1.56 µg/mL; with `O=C(NCc1nc(-c2ccc(Br)cc2)c[nH]1)Nc1nc2c(C(F)(F)F)cccc2s1` [Compound 6e], 12.5 µg/mL.

The same test, now with this note: unit printed as g/mL.
In turn, `O=C(NCc1nc(-c2ccc(Br)cc2)c[nH]1)Nc1ncc(Sc2ccc(Cl)cn2)s1` [Compound 5e] showed an MIC (anti-C. difficile activity) of 3.12 µg/mL (≈ 5.98 µM).
Still for that read-out and setting: next, `O=C(NCc1nc(-c2ccc(Br)cc2)c[nH]1)Nc1ncc(Sc2ccc(C(F)(F)F)cn2)s1` [Compound 5f]: 3.12 µg/mL (≈ 5.62 µM).

For the origin of these results see patent US20260265242A1, “FABK INHIBITOR COMPOSITIONS” (The Texas A&M University System, priority 2023, published 2026).
